# Values joined by “and” are separate entries in the source; they are usually repeats but may differ in a detail not shown here. Equal entries are not always repeated.
# System: LEFCH
# Experiment: Postemergence foliar-applied weed control, direct-seeded rice (greenhouse)
# Type: in vivo, Leptochloa chinensis (L.) Nees (Chinese sprangletop)
smiles,measurement,setting,value
COc1c(Cl)ccc(-c2nc(C(=O)OCc3ccccc3)c(Cl)c(N)c2F)c1F [Compound A Benzyl Ester],Visual Weed Control (%) - 19 DAA LEFCH Obs,"19 DAA, r9-11 ester 8/16/32 g ae/ha alone, r12-13 flutolanil 280/560 g ai/ha alone, r14-19 ester 8/16/32 at each of 280, 560",45% and 50%
same,Visual Weed Control (%)—21 DAA LEFCH Obs,"r9-11 ester 8/16/32 g ae/ha alone, r12-14 kasugamycin 17.5/35/70 g ai/ha alone, r15-23 ester 8/16/32 at each of 17.5, 35, 70",40% and 65%
same,Visual Weed Control (%) - 21 DAA LEFCH Obs,"r10-11 ester 16/32 g ae/ha alone, r12 mancozeb 840 g ai/ha alone, r13-14 ester 16/32 + 840",15% and 25%
same,Visual Weed Control (%) - 21 DAA LEFCH Obs,"r10-12 ester 8/16/32 g ae/ha alone, r13-14 isoprothiolane 266/533 g ai/ha alone, r15-20 ester 8/16/32 at each of 266, 533",50% and 60% and 70%
same,Visual Weed Control (%)—21 DAA LEFCH Obs,"r38-39 ester 8/16 g ae/ha alone, r40 isotianil 380 g ai/ha alone, r41-42 ester 8/16 + 380",25% and 40%
same,Visual Weed Control (%) - 21 DAA LEFCH Obs,"r42-43 ester 16/32 g ae/ha alone, r44-46 difenoconazole 50/100/200 g ai/ha alone, r47-52 ester 16/32 at each of 50, 100, 200",25% and 43%

# Source: US9730445B2, “Herbicidal compositions comprising 4-amino-3-chloro-5-fluoro-6-(4-chloro-2-fluoro-3-methoxyphenyl) pyridine-2-carboxylic acid or a derivative thereof and fungicides” (DOW AGROSCIENCES LLC, priority 2013, dated 2017)
